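Results reflect a 48-hour exposure of cells in 96-well plates to compound at five concentrations. GI50 marks 50% less growth. Definition used: TGI = concentration required for complete inhibition of growth.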

Some test systems named below: HOP-62 NSCLC; IGROV1 ovarian; EKVX NSCLC; MOLT-4 leukemia; UACC-62 melanoma; OVCAR-5 ovarian; SF-295 CNS; RXF 393 renal; OVCAR-3 ovarian; UACC-257 melanoma.
Holding throughout (test): NCI-60 cell line screen, 48 h

With `CC(=O)Oc1ccc(/C=N/NC(N)=S)nc1`, the GI50 was 6.15 µM in the assay with HOP-62 NSCLC; 4500 nM in the assay with IGROV1 ovarian; 10.8 µM with EKVX NSCLC; 2570 nM in the assay with MOLT-4 leukemia; 4.36 µM with UACC-62 melanoma; 69 µM in the assay on OVCAR-5 ovarian. Further, the GI50 was 6.42 µM with SF-295 CNS, 4240 nM in the assay on RXF 393 renal, 2720 nM with OVCAR-3 ovarian and 14.2 µM with UACC-257 melanoma. The TGI with HOP-62 NSCLC was 77.6 µM; in the assay on IGROV1 ovarian, 26.8 µM; with EKVX NSCLC it was over 100 µM; with MOLT-4 leukemia, over 100 µM; in the assay with UACC-62 melanoma, over 100 µM; in the assay with OVCAR-5 ovarian, over 100 µM. The TGI with SF-295 CNS is 42.6 µM; in the assay with RXF 393 renal, over 100 µM; with OVCAR-3 ovarian, over 100 µM; in the assay with UACC-257 melanoma it was 57.7 µM.

As to `O=C1C=CC2(C=C1)C[C@H](NC(=O)C(F)(F)F)C(=O)O2`, the TGI is over 100 µM in the assay on HOP-62 NSCLC; 39.6 µM in the assay with EKVX NSCLC; over 100 µM with MOLT-4 leukemia; 37.7 µM in the assay with UACC-62 melanoma; over 100 µM in the assay on OVCAR-5 ovarian; over 100 µM in the assay with SF-295 CNS. Further, the TGI with RXF 393 renal, with OVCAR-3 ovarian and in the assay on UACC-257 melanoma was over 100 µM in each case.

`CC(=O)C1C(=O)N(C(C)C)C[C@@H]2CCC(=O)C[C@H]12` (stereo partly drawn): the TGI in the assay on HOP-62 NSCLC, in the assay on IGROV1 ovarian, in the assay on EKVX NSCLC, in the assay on MOLT-4 leukemia, in the assay with UACC-62 melanoma and with SF-295 CNS was over 100 µM throughout. Moreover, the TGI in the assay on RXF 393 renal, with OVCAR-3 ovarian and in the assay on UACC-257 melanoma was over 100 µM throughout.

As to `CCC1CNC(=O)CC1CC(=O)OC` (stereo not drawn), the TGI with HOP-62 NSCLC, with IGROV1 ovarian, in the assay with EKVX NSCLC, in the assay with MOLT-4 leukemia, in the assay on UACC-62 melanoma and in the assay with OVCAR-5 ovarian was over 100 µM in each case. Also, the TGI with RXF 393 renal and in the assay on OVCAR-3 ovarian was over 100 µM in each case.

Turning to `CC1OC(OC2CCC3(C=O)C4CCC5(C)C(C6=CC(=O)OC6)CCC5(O)C4CCC3(O)C2)C(O)C(O)C1O` (stereo not drawn), the TGI with HOP-62 NSCLC was 3.85e-05 µM; in the assay on IGROV1 ovarian, 0.0179 µM; in the assay with EKVX NSCLC, 3.38e-05 µM; in the assay with MOLT-4 leukemia it was 1.6e-05 µM; with UACC-62 melanoma it was 0.000127 µM; in the assay on SF-295 CNS, 6.69e-05 µM. For the same molecule, the TGI with RXF 393 renal was 8.12e-05 µM; in the assay with UACC-257 melanoma, 0.000259 µM. Also, the GI50 in the assay on OVCAR-5 ovarian was 0.0112 µM.

`COc1cc2c(c(OC)c1OC)-c1ccc(SC)c(=O)cc1[C@@H](NC(=O)c1ccc(Cl)cc1)CC2`: the TGI with HOP-62 NSCLC is 2.03 µM; with IGROV1 ovarian it was over 100 µM; in the assay on MOLT-4 leukemia it was over 100 µM; in the assay with UACC-62 melanoma, 56.3 µM; with SF-295 CNS, under 0.01 µM; in the assay on RXF 393 renal it was 19.4 µM. Also, the TGI in the assay on OVCAR-3 ovarian is 2.64 µM; in the assay with UACC-257 melanoma it was over 100 µM.

`CCCCCCCCCCCCOP(N)(=O)OCCCCCCCCCCCC`: the TGI with HOP-62 NSCLC, in the assay on IGROV1 ovarian, in the assay with EKVX NSCLC, with MOLT-4 leukemia, with UACC-62 melanoma and in the assay with SF-295 CNS was over 100 µM in each case. The TGI with RXF 393 renal, with OVCAR-3 ovarian and with UACC-257 melanoma was over 100 µM throughout.

As for `COc1ccc2nc3ccccc3c(NCCCCN(C)CCCl)c2c1`, the TGI with HOP-62 NSCLC was 0.546 µM; in the assay on IGROV1 ovarian, 0.877 µM; in the assay on EKVX NSCLC it was 3.05 µM; with UACC-62 melanoma, 0.305 µM; in the assay on OVCAR-5 ovarian it was 1.08 µM; with SF-295 CNS, 1.17 µM. The TGI was 0.362 µM with RXF 393 renal, 0.712 µM in the assay with OVCAR-3 ovarian and 4.93 µM with UACC-257 melanoma.

`COC(=O)CC(C(C(C)=O)C(=O)OCc1ccccc1)N1C(=O)OCC1c1ccccc1` (stereo not drawn): the TGI in the assay with HOP-62 NSCLC, in the assay with IGROV1 ovarian, in the assay on EKVX NSCLC, with MOLT-4 leukemia, with UACC-62 melanoma and in the assay with SF-295 CNS was over 100 µM each time. The TGI with RXF 393 renal, in the assay on OVCAR-3 ovarian and with UACC-257 melanoma was over 100 µM throughout.

As to `COc1cc2cc3c4c(cc(OC)c(OC)c4c2cc1OC)CCN3C(=O)CCC(=O)NCCCN(C)C`, the TGI with HOP-62 NSCLC, with IGROV1 ovarian, in the assay with EKVX NSCLC, in the assay with MOLT-4 leukemia, in the assay with UACC-62 melanoma and in the assay on SF-295 CNS was over 100 µM throughout. Also, the TGI in the assay with RXF 393 renal, in the assay on OVCAR-3 ovarian and in the assay on UACC-257 melanoma was over 100 µM throughout.

For the molecule `O=C(Nc1cccc(NC(=O)c2cc(=O)c3ccccc3o2)n1)c1cc(=O)c2ccccc2o1`, the TGI in the assay on HOP-62 NSCLC, with IGROV1 ovarian, in the assay with EKVX NSCLC, with MOLT-4 leukemia, with UACC-62 melanoma and in the assay on OVCAR-5 ovarian was over 100 µM in each case. Besides, the TGI with RXF 393 renal, in the assay with OVCAR-3 ovarian and in the assay on UACC-257 melanoma was over 100 µM each time.

As to `CC1COCC(C)N1C1=C(Cl)C(=O)c2ccccc2C1=O` (stereo not drawn), the GI50 was 14 µM with HOP-62 NSCLC; 1.42 µM with EKVX NSCLC; 2770 nM in the assay with MOLT-4 leukemia; 5.85 µM with UACC-62 melanoma; 17 µM with OVCAR-5 ovarian; 2.94 µM in the assay with SF-295 CNS. In addition, the GI50 was 1900 nM in the assay with RXF 393 renal, 1560 nM in the assay with OVCAR-3 ovarian and 1.6 µM in the assay on UACC-257 melanoma. In addition, the TGI with HOP-62 NSCLC is 27.4 µM; with EKVX NSCLC, 2.87 µM; in the assay with MOLT-4 leukemia, 7.5 µM; with UACC-62 melanoma it was 18.8 µM; with OVCAR-5 ovarian, 32 µM; in the assay on SF-295 CNS, 17.7 µM. For the same molecule, the figures for the TGI with RXF 393 renal, in the assay with OVCAR-3 ovarian and in the assay with UACC-257 melanoma were 4.22 µM, 2.92 µM and 3.08 µM, respectively.

`CO[C@@]12[C@@H]3NC3CN1C1=C(C(=O)C(N)=C(C)C1=O)[C@@H]2COC(N)=O` (stereo partly drawn): the TGI came out at 8.21 µM in the assay with HOP-62 NSCLC; 4 µM in the assay on IGROV1 ovarian; 20.2 µM with EKVX NSCLC; 6.99 µM with OVCAR-5 ovarian; 4.16 µM in the assay on RXF 393 renal; 3.07 µM in the assay on OVCAR-3 ovarian. Further, the TGI with UACC-257 melanoma was found to be 2.14 µM. Further, the GI50 in the assay with IGROV1 ovarian is 1300 nM; with EKVX NSCLC it was 3.09 µM; with MOLT-4 leukemia, 278 nM; in the assay with OVCAR-5 ovarian, 1.02 µM; in the assay with RXF 393 renal, 1270 nM; in the assay on OVCAR-3 ovarian, 1070 nM.

Turning to `CCOC(=O)[C@H]1Nc2ccccc2C2c3ccccc3CC21` (stereo partly drawn), the TGI in the assay with HOP-62 NSCLC, in the assay on IGROV1 ovarian, in the assay on MOLT-4 leukemia, with UACC-62 melanoma, with OVCAR-5 ovarian and with SF-295 CNS was over 100 µM each time. Besides, the TGI in the assay on RXF 393 renal is 31.1 µM; in the assay on OVCAR-3 ovarian it was over 100 µM; with UACC-257 melanoma, 56.9 µM.

These data come from PubChem BioAssay (NCI).
